Assays:
ABL (WT) = molecular target: T1, ABL (WT) (Homo sapiens, UniProt P00519); assay: Abl kinase activity assay, Kinase-Glo Plus luminescence (BPS Biosciences); format: biochemical; details: 10 μM ATP
T1 construct: purchased BPS Biosciences (named as the lab that ran the assay)
Experimental: (§1) Assay was conducted by BPS Biosciences, 6405 Mira Mesa Blvd. Suite 100. San Diego, Calif. 92121. United States
(§2) • The assay was performed using Kinase-Glo Plus luminescence kinase assay kit (Promega). It measures kinase activity by quantitating the amount of ATP remaining in solution following a kinase reaction. The luminescent signal from the assay is correlated with the amount of ATP present and is inversely correlated with the amount of kinase activity. • The testing compounds were diluted in 10% DMSO and 5 μl of the dilution was added to a 50 μl reaction so that the final concentration of DMSO is 1% in all of reactions. All of the enzymatic reactions were conducted at 30° C. for 45 minutes. The 50 μl reaction mixture contains 40 mM Tris, pH 7.4, 10 mM MgCl2, 0.1 mg/ml BSA, 1 mM DTT, 10 μM ATP, Kinase substrate and the enzyme. After the enzymatic reaction, 50 μl of Kinase-Glo Plus Luminescence kinase assay solution (Promega) was added to each reaction and incubated on the plate for 15 minutes, at room temperature. Luminescence signal was measured using a BioTek Synergy 2 microplate reader.
(§3) • Kinase activity assays were performed in duplicate at each concentration. The luminescence data were analyzed using the computer software, Graphpad Prism. The difference between luminescence intensities in the absence of Kinase (Lut) and in the presence of Kinase (Luc) was defined as 100% activity (Lut−Luc). Using luminescence signal (Lu) in the presence of the compound, % activity was calculated as: • % activity={(Lut−Lu)/(Lut−Luc)}×100%, where Lu=the luminescence intensity in the presence of the compound. The values of % activity versus a series of compound concentrations were then plotted using non-linear regression analysis of Sigmoidal dose-response curve generated with the equation Y=B+(T−B)/1+10 ((LogEC50−X)×Hill Slope), where Y=percent activity, B=minimum percent activity, T=maximum percent activity, X=logarithm of compound and Hill Slope=slope factor or Hill coefficient. The IC 50 value was determined by the concentration causing a half-maximal percent activity.

Abl(T315I) = molecular target: T2, Abl(T315I) (Homo sapiens, UniProt P00519, T315I); assay: Abl(T315I) kinase activity assay, Kinase-Glo Plus luminescence (BPS Biosciences); format: biochemical; details: 10 μM ATP
T2 construct: purchased BPS Biosciences (named as the lab that ran the assay)
Experimental: as §1, §2, §3

[1] = 10 nM compound, read-out: % Inhibition of Compound 55 @10 nM
[2] = 100 nM compound, read-out: % Inhibition of Compound 55 @100 nM

SMILES: Cc1ccc(C(=O)Nc2ccc(CN3CCN(C)CC3)c(C(F)(F)F)c2)cc1C12CC(c3cnc4cccnn34)(C1)C2 [Compound 55, 3-(3-(imidazo[1,2-b]pyridazin-3-yl)bicyclo[1.1.1]pentan-1-yl)-4-methyl-N-(4-((4-methylpiperazin-1-yl)methyl)-3-(trifluoromethyl)phenyl)benzamide]
- inhibition at 0.01 µM (ABL (WT); [1]): > 10%
- inhibition at 0.1 µM (ABL (WT); [2]): > 25%
- IC50 (ABL (WT); read-out: IC-50 of Compound 55): < 0.5 µM
- inhibition at 0.01 µM (Abl(T315I); [1]): > 10%
- inhibition at 0.1 µM (Abl(T315I); [2]): > 25%
- IC50 (Abl(T315I); read-out: IC-50 of Compound 55): < 0.5 µM
